Results on three compounds are retold here after BindingDB's records for doi:10.7270/Q22Z140X (Burnham Center For Chemical Genomics, 2010).

For this test, the target named is T1, NACHT, LRR and PYD domains-containing protein 1 (Homo sapiens, UniProt Q9C000).
T1 sequence (Q9C000 whole entry): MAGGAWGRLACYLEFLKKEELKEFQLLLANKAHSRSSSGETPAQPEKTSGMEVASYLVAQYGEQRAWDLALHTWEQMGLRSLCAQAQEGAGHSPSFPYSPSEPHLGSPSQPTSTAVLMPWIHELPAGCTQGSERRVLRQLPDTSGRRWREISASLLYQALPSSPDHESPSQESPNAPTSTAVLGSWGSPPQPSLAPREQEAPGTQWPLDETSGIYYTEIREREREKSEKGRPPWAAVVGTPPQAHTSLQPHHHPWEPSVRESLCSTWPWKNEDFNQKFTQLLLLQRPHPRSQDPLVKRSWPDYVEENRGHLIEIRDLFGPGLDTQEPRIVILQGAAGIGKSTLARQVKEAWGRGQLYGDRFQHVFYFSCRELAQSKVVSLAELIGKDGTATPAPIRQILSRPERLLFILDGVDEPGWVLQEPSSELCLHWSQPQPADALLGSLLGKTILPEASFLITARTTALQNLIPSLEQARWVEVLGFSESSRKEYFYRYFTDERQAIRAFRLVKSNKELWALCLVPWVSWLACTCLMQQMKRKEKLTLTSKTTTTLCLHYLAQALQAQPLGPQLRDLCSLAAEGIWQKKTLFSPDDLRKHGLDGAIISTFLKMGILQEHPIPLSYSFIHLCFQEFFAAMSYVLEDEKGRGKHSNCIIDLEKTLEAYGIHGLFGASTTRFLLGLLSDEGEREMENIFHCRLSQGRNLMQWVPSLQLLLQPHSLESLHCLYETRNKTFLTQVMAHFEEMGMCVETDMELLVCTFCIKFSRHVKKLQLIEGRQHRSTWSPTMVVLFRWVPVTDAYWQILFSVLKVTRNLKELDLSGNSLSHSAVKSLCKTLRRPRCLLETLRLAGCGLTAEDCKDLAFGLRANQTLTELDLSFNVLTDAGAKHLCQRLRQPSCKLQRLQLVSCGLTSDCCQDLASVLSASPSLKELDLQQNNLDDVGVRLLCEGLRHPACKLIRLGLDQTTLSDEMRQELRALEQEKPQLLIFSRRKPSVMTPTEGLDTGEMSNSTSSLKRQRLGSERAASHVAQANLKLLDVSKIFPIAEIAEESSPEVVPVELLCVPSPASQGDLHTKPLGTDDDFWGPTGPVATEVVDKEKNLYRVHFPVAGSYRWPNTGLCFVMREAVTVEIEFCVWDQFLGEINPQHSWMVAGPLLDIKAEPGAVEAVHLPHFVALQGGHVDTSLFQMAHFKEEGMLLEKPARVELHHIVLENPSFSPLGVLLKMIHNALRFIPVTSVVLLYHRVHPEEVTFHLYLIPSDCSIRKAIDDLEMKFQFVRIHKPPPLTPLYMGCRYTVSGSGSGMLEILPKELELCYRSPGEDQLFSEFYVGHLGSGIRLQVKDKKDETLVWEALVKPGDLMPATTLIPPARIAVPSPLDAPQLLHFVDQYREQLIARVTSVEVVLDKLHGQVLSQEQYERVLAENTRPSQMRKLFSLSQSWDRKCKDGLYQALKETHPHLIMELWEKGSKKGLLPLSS
As to the kind of experiment: NALP1 inhibitors in yeast, dose response, luminescent (AID 488860).
What is called IC50 is the concentration at which inhibition is half-maximal. With `Oc1cc(Sc2nnnn2-c2ccccc2)c(O)n1-c1cccc(Cl)c1`, 5.83 µM corresponded to half-maximal inhibition (IC50).

The compound `Cc1ccc(-n2c(O)cc(Sc3ccccc3C(=O)O)c2O)cc1` showed an IC50 of 34.4 µM. The value for `COc1ccccc1-n1c(O)c2c(c1O)CC(c1ccccc1)CC2` (stereo not drawn) was more than 100 µM.
